Reference: US12570642B2, “GLP-IR modulating compounds” (Gilead Sciences, Inc., priority 2021, dated 2026)

These molecules were tested against GLP-1R (Homo sapiens, UniProt P43220) (assay: GLP-1R Activation - cAMP Assay). Settings: […]; each compound run on one of the two cAMP assays (Assay 1 or Assay 2, not specified).
Sequence of GLP-1R (P43220 24-463): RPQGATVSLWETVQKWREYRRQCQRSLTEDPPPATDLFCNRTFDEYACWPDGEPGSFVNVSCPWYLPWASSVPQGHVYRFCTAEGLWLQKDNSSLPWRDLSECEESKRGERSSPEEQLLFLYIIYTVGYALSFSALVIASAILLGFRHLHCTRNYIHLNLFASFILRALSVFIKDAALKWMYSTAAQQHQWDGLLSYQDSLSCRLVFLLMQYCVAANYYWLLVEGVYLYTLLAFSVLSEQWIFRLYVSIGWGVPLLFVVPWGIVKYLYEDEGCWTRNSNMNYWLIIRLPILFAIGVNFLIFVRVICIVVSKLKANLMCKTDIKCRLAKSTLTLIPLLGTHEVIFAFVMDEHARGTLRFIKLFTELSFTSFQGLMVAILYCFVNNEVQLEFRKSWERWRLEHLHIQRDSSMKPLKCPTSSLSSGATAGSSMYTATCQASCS
Assay type: cell-based
Method in brief: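 CHO cells stably expressing GLP-1R, plated at 1,000 cells/well overnight, then equilibrated 1 h in HBSS with 20 mM Hepes and 0.1% BSA. Agonist added as 10-point dose response for 30 min at 37 °C. cAMP measured by HTRF (Cisbio Gs Dynamic kit); EC50 from sigmoidal fit.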
`CC(=O)N1[C@@H](Cn2c(Cc3cc(F)c(-c4cccc(OCc5ccc(C#N)cc5F)n4)cc3F)nc3ccc(C(=O)O)cc32)C[C@H]2C[C@H]21` [Example 150, 1-(((1R,3R,5R)-2-acetyl-2-azabicyclo[3.1.0]hexan-3-yl)methyl)-2-(4-(6-((4-cyano-2-fluorobenzyl)oxy)pyridin-2-yl)-2,5-difluorobenzyl)-1H-benzo[d]imidazole-6-carboxylic Acid] showed an EC50 of 0.063 nM.

Same assay, conditions: cAMP increase in CHO cells stably expressing GLP-1R; each compound run on one of the two cAMP assays (Assay 1 or Assay 2, not specified)
`Cc1cc(Cc2nc3ccc(C(=O)O)cc3n2[C@@H]2COCC2(C)C)c(Cl)cc1-c1ccc(F)c(OCc2ccc(C#N)cc2)n1` [Example 135, (S)-2-(2-chloro-4-(6-((4-cyanobenzyl)oxy)-5-fluoropyridin-2-yl)-5-methylbenzyl)-1-(4,4-dimethyltetrahydrofuran-3-yl)-1H-benzo[d]imidazole-6-carboxylic Acid] gave an EC50 of 0.361 nM.
Work on `Cc1cc(Cc2nc3c(F)cc(C(=O)O)cc3n2[C@@H]2COCC2(C)C)c(Cl)cc1-c1ccc(F)c(OCc2ccc(C#N)cc2)n1` [Example 136, (S)-2-(2-chloro-4-(6-((4-cyanobenzyl)oxy)-5-fluoropyridin-2-yl)-5-methylbenzyl)-1-(4,4-dimethyltetrahydrofuran-3-yl)-4-fluoro-1H-benzo[d]imidazole-6-carboxylic Acid] yielded an EC50 of 0.312 nM.
For `CC1(C)COC[C@H]1n1c(Cn2cc(F)c(-c3cccc(OCc4ccc(Cl)cc4F)n3)cc2=O)nc2c(F)cc(C(=O)O)cc21` [Example 137, (S)-2-((6-((4-chloro-2-fluorobenzyl)oxy)-5′-fluoro-2′-oxo-[2,4′-bipyridin]-1′(2′H)-yl)methyl)-1-(4,4-dimethyltetrahydrofuran-3-yl)-4-fluoro-1H-benzo[d]imidazole-6-carboxylic Acid], the EC50 was 0.039 nM.
With `Cc1cc(Cc2nc3c(F)cc(C(=O)O)cc3n2[C@@H]2COCC2(C)C)c(Cl)cc1-c1ccc(F)c(OCc2ccc(C#N)cc2F)n1` [Example 138, (S)-2-(2-chloro-4-(6-((4-cyano-2-fluorobenzyl)oxy)-5-fluoropyridin-2-yl)-5-methylbenzyl)-1-(4,4-dimethyltetrahydrofuran-3-yl)-4-fluoro-1H-benzo[d]imidazole-6-carboxylic Acid] the EC50 was 0.136 nM.
In the case of `Cc1cc(Cc2nc3c(F)cc(C(=O)O)cc3n2[C@@H]2COCC2(C)C)c(Cl)cc1-c1cccc(OCc2ccc(C#N)cc2F)n1` [Example 139, (S)-2-(2-chloro-4-(6-((4-cyano-2-fluorobenzyl)oxy)pyridin-2-yl)-5-methylbenzyl)-1-(4,4-dimethyltetrahydrofuran-3-yl)-4-fluoro-1H-benzo[d]imidazole-6-carboxylic Acid], the EC50 is reported as 0.023 nM.
With `Cc1cc(Cc2nc3ccc(C(=O)O)cc3n2[C@@H]2COCC2(C)C)c(Cl)cc1-c1ccc(F)c(OCc2ccc(C#N)cc2F)n1` [Example 140, (S)-2-(2-chloro-4-(6-((4-cyano-2-fluorobenzyl)oxy)-5-fluoropyridin-2-yl)-5-methylbenzyl)-1-(4,4-dimethyltetrahydrofuran-3-yl)-1H-benzo[d]imidazole-6-carboxylic Acid] the EC50 was 0.158 nM.
For `Cc1cc(Cc2nc3ccc(C(=O)O)cc3n2[C@@H]2COCC2(C)C)c(Cl)cc1-c1cccc(OCc2ccc(C#N)cc2F)n1` [Example 141, (S)-2-(2-chloro-4-(6-((4-cyano-2-fluorobenzyl)oxy)pyridin-2-yl)-5-methylbenzyl)-1-(4,4-dimethyltetrahydrofuran-3-yl)-1H-benzo[d]imidazole-6-carboxylic Acid], the EC50 was 0.079 nM.
In the case of `Cc1cc(Cc2nc3c(F)cc(C(=O)O)cc3n2C[C@@H]2CCO2)c(Cl)cc1-c1ccc(F)c(OCc2ccc(C#N)cc2F)n1` [Example 142, (S)-2-(2-chloro-4-(6-((4-cyano-2-fluorobenzyl)oxy)-5-fluoropyridin-2-yl)-5-methylbenzyl)-4-fluoro-1-(oxetan-2-ylmethyl)-1H-benzo[d]imidazole-6-carboxylic Acid], the EC50 is reported as 0.894 nM.
Work on `Cc1cc(Cc2nc3c(F)cc(C(=O)O)cc3n2C[C@@H]2CCO2)c(Cl)cc1-c1cccc(OCc2ccc(C#N)cc2F)n1` [Example 143, (S)-2-(2-chloro-4-(6-((4-cyano-2-fluorobenzyl)oxy)pyridin-2-yl)-5-methylbenzyl)-4-fluoro-1-(oxetan-2-ylmethyl)-1H-benzo[d]imidazole-6-carboxylic Acid] yielded an EC50 of 0.614 nM.
`Cc1cc(Cc2nc3ccc(C(=O)O)cc3n2C[C@@H]2CCO2)c(Cl)cc1-c1ccc(F)c(OCc2ccc(C#N)cc2F)n1` [Example 144, (S)-2-(2-chloro-4-(6-((4-cyano-2-fluorobenzyl)oxy)-5-fluoropyridin-2-yl)-5-methylbenzyl)-1-(oxetan-2-ylmethyl)-1H-benzo[d]imidazole-6-carboxylic Acid] gave an EC50 of 1.08 nM.
`CC1(C)COC[C@H]1n1c(Cn2cc(F)c(-c3cccc(OCc4ccc(C#N)cc4F)n3)cc2=O)nc2c(F)cc(C(=O)O)cc21` [Example 145, (S)-2-((6-((4-cyano-2-fluorobenzyl)oxy)-5′-fluoro-2′-oxo-[2,4′-bipyridin]-1′(2′H)-yl)methyl)-1-(4,4-dimethyltetrahydrofuran-3-yl)-4-fluoro-1H-benzo[d]imidazole-6-carboxylic Acid] showed an EC50 of 0.022 nM.
Work on `Cc1c(-c2cccc(OCc3ccc(C#N)cc3F)n2)ccc(Cc2nc3ccc(C(=O)O)cc3n2C[C@@H]2CCO2)c1F` [Example 146, (S)-2-(4-(6-((4-cyano-2-fluorobenzyl)oxy)pyridin-2-yl)-2-fluoro-3-methylbenzyl)-1-(oxetan-2-ylmethyl)-1H-benzo[d]imidazole-6-carboxylic Acid] yielded an EC50 of 0.379 nM.
In the case of `CC(=O)NCc1cc(F)c(COc2cccc(-c3cc(F)c(Cc4nc5ccc(C(=O)O)cc5n4C[C@@H]4CCO4)cc3F)n2)cn1` [Example 147, (S)-2-(4-(6-((6-(acetamidomethyl)-4-fluoropyridin-3-yl)methoxy)pyridin-2-yl)-2,5-difluorobenzyl)-1-(oxetan-2-ylmethyl)-1H-benzo[d]imidazole-6-carboxylic Acid], the EC50 is reported as 0.233 nM.
Work on `O=C(O)c1cc(F)c2nc(Cc3cc(F)c(-c4ncc(F)c(OCc5ccc(C(F)(F)F)cc5F)n4)cc3F)n(C[C@@H]3CCO3)c2c1` [Example 148, (S)-2-(2,5-difluoro-4-(5-fluoro-4-((2-fluoro-4-(trifluoromethyl)benzyl)oxy)pyrimidin-2-yl)benzyl)-4-fluoro-1-(oxetan-2-ylmethyl)-1H-benzo[d]imidazole-6-carboxylic Acid] yielded an EC50 of 0.174 nM.
With `O=C(O)c1cc(F)c2nc(Cc3cc(F)c(-c4nccc(OCc5ccc(C(F)(F)F)cc5F)n4)cc3F)n(C[C@@H]3CCO3)c2c1` [Example 149] the EC50 was 0.082 nM.
`CC1(C)COC[C@H]1n1c(Cc2c(F)cc(-c3nc(OCc4ccc(C#N)cc4)c(F)cc3F)cc2F)nc2ccc(C(=O)O)cc21` [Example 151, (S)-2-(4-(6-((4-cyanobenzyl)oxy)-3,5-difluoropyridin-2-yl)-2,6-difluorobenzyl)-1-(4,4-dimethyltetrahydrofuran-3-yl)-1H-benzo[d]imidazole-6-carboxylic Acid] showed an EC50 of 0.234 nM.
`CC1(C)COC[C@H]1n1c(Cc2ccc(-c3nc(OCc4ccc(C#N)cc4)c(F)cc3F)cc2F)nc2ccc(C(=O)O)cc21` [Example 152, (S)-2-(4-(6-((4-cyanobenzyl)oxy)-3,5-difluoropyridin-2-yl)-2-fluorobenzyl)-1-(4,4-dimethyltetrahydrofuran-3-yl)-1H-benzo[d]imidazole-6-carboxylic Acid] gave an EC50 of 0.115 nM.
